Experimental data reported in patent US9410958B2, “Alkyne-activated fluorogenic azide compounds and methods of use thereof” (The Regents of the University of California, priority 2014, dated 2016).

Key:
[1] = in methanol; cited from earlier work
[2] = tested on: sialic acids in developing zebrafish; assay: Visualizing sialic acids in developing zebrafish; type: in vivo; details: 24 or 36 hpf, imaged without washing
Protocol: The probes were tested for visualization of glycans in vivo. […] To test the utility of CalFluors in this system for such applications, zebrafish embryos at the single-cell stage were injected with SiaNAl. After either 24 or 36 hours post fertilization (hpf), the embryos were bathed in a solution containing a CalFluor probe along with copper catalyst.
Zebrafish were injected with 50 pmol SiaNAl at the one to four-cell stage and allowed to develop over time. (A) Real-time labeling of sialic acids. After 24 hpf, zebrafish were incubated in a solution containing 1 μM CalFluor 580 and copper catalyst. […] (B) Comparing no-wash labeling performance by azide probes. After 36 hpf, the embryos were transferred to a solution containing the fluorophore (1 μM for CalFluor 580 and AlexaFluor 594 alkyl azide, or 5 μM for 3-azido-7-hydroxycoumarin) and copper catalyst and imaged without washing after 20 minutes.

fixed HEK 293T cells = assay: No-wash labeling of glycoproteins on fixed cells; type: cell-based; details: 10 μM probe, 100 μM TBTA, 1 mM CuSO4, 2 mM sodium ascorbate
Protocol: (A) Labeling glycoproteins on live cell surfaces. […] (B) Labeling glycoproteins on fixed cells.
Fixed (3% paraformaldehyde) Ac4ManNAl-treated HEK 293T cells were also evaluated as substrates CalFluor labeling. In this case, copper-click reaction with 50 μM CuSO4 and 300 μM BTTAA gave poor labeling, potentially due to sequestration of the copper catalyst by denatured proteins. However, use of higher catalyst concentrations (100 μM TBTA, 1 mM CuSO4, 2 mM sodium ascorbate) gave robust labeling with 10 μM CalFluor dyes (FIG. 34B). […] Similar results were achieved when performing the same experiments on fixed CHO K1 cells.

Escherichia coli = assay: No-wash peptidoglycan labeling of Gram-negative Escherichia coli; type: cell-based
Protocol: E. coli incubated with 5 mM endobcnDala or Dala for 2 h from a starting OD of 0.05 and imaged in the presence of 20 μM of azido Si-rhodamine 11 as described above. Only a fraction of the bacteria incubated with endobcnDala were fluorescently labeled under these conditions. (A), (C) Fluorescence and brightfield images of E. coli incubated with 5 mM endobcnDala. (B), (D) Fluorescence and brightfield images of E. coli incubated with 5 mM Dala. Scale bar=10 μm. […] Scale bar=1 μm.
Finally, the bacteria were imaged using the NIR fluorogenic azide probes. It was confirmed that azido Si-rhodamines 9, 10, and 11 would undergo an enhancement in fluorescence upon reaction with cyclooctynes. These probes were incubated with endo-bicyclononynol in vitro to generate triazole products (FIG. 24A). […] All three bacterial strains were incubated with endobcnDala 14 as before, but after washing away excess amino acid, the bacteria were incubated with 10 or 20 μM 11 for 1 hour and directly imaged without washing away excess probe (FIG. 7B). […] While the biosynthetic machinery can tolerate fluorophore-conjugated D-amino acids, allowing one-step PG imaging versus our two-step metabolic/chemical labeling approach, chemical reporter groups are much smaller than long-wavelength fluorophores and therefore minimize possible biological perturbations. […]

[3] = tested on: wild-type L. monocytogenes; assay: D-alanine competition experiment; details: 5 mM cyclooctyne amino acid, 0 or 20 mM D-alanine
Protocol: The bacteria were incubated with 5 mM cyclooctyne amino acid, in the presence of either 0 or 20 mM D-alanine, and labeled following the general procedure.
Bacteria were grown to an optical density (OD) of 0.4 in their respective media (7H9 for M. smegmatis, LB for C. glutamicum, BHI for L. monocytogenes) at 37° C. (M. smegmatis and L. monocytogenes) or 30° C. (C. glutamicum). Then, 5 mM D-amino acid was added (from a 1 M stock in H2O, 1 eq. NaOH was added to help solubilize compounds 12, 13, and 14) and the cells grown for one doubling time. The bacteria were then added to a 96-well V-bottom plate at 200 μL/well and pelleted by centrifugation at 3500 rpm for 3 min. The supernatant was removed and the cells resuspended in 200 μL PBS and pelleted again. This wash process was repeated twice more. The cells were then incubated with 100 μL of 20 μM azido-PEG3-carboxyrhodamine 110 (Click Chemistry Tools) in PBS (made by diluting a 1 mM stock in 9:1 PBS/DMSO) and placed in a 37° C. shaker for 1 h. Alternatively, for alkDala, labeling was performed by incubation with 100 μL of 20 μM azido-PEG3-carboxyrhodamine 110, 128 μM TBTA, 1 mM CuSO4, and 1.2 mM sodium ascorbate in PBS in a 37° C. shaker for 1 h. The cells were washed three times, then fixed with 4% paraformaldehyde for 10 min at rt. The cells were washed another three times, then studied by flow cytometry and microscopy.

CHO K1 cells = assay: No-wash cell surface labeling of SiaNAl residues, CHO K1; type: cell-based
Protocol: Si-rhodamine 10 was evaluated as a reagent for imaging SiaNAl residues on live cell surfaces. CHO K1 cells were incubated with 50 μM Ac4ManNAl for 3 days, washed, and then incubated with 5 μM 10, 50 μM CuSO4, 300 μM BTTAA, and 1 mM sodium ascorbate. […] Cell-surface glycan labeling was visualized as it occurred in real time (FIG. 14). Background labeling was minimal on control cells treated with N-acetylmannosamine (Ac4ManNAc) (FIG. 13).

[4] = tested on: M. smegmatis, C. glutamicum, L. monocytogenes; assay: No-wash peptidoglycan labeling with compound 11; type: cell-based; details: endobcnDala 14-treated, 10 or 20 μM probe, 1 hour
Protocol: Finally, the bacteria were imaged using the NIR fluorogenic azide probes. It was confirmed that azido Si-rhodamines 9, 10, and 11 would undergo an enhancement in fluorescence upon reaction with cyclooctynes. These probes were incubated with endo-bicyclononynol in vitro to generate triazole products (FIG. 24A). […] All three bacterial strains were incubated with endobcnDala 14 as before, but after washing away excess amino acid, the bacteria were incubated with 10 or 20 μM 11 for 1 hour and directly imaged without washing away excess probe (FIG. 7B). […] While the biosynthetic machinery can tolerate fluorophore-conjugated D-amino acids, allowing one-step PG imaging versus our two-step metabolic/chemical labeling approach, chemical reporter groups are much smaller than long-wavelength fluorophores and therefore minimize possible biological perturbations. […] It is hypothesized that the presence of an outer membrane (though apparently not a mycobacterial “mycomembrane”, FIG. 8A-D) limits access of compound 11 to PG. By contrast, smaller dyes were able to access both terminal alkynes and cyclooctynes in metabolically labeled E. coli PG (FIG. 27).
The bacteria were incubated with either endobcnDala or Dala and washed as described above. […]

HEK 293T cells = assay: No-wash live cell surface labeling and mitochondrial co-staining, HEK 293T
Protocol: Cells were grown in 8-well Lab-Tek Chambered Coverglass systems in media (HAM-F12 for CHO K1 cells, DMEM for HEK 293T cells) containing 10% fetal bovine serum, penicillin/streptomycin, and either 50 μM Ac4ManNAl or Ac4ManNAc for 3 d at 37° C., as described previously. The cells were then washed with 3×300 μL PBS, then incubated with 100 μL freshly prepared click solution. Click solution comprised of 50 μM CuSO4, 300 μM BTTAA, 2.5 mM sodium ascorbate, and 5 μM azido Si-rhodamine. This was prepared by first adding 0.5 μL 50 mM CuSO4 in H2O and 3 μL 50 mM BTTAA in H2O to 481.5 μL PBS. Next, 12.5 μL freshly prepared 100 mM sodium ascorbate in PBS was added. Finally, 2.5 μL 1 mM azido Si-rhodamine in 4:1 PBS/MeOH was added. After 15 min, the reactions were quenched with the addition of 1 μL of 100 mM bathocuproine disulfonate (BCS) in H2O (final concentration 1 mM). […] For real-time imaging, images were acquired as the labeling progressed without quenching the reaction.
HEK 293T cells were grown in a LabTek 8-well chambered glass slide in DMEM containing fetal bovine serum, penicillin/streptomycin for 3 d at 37° C. The cells were then incubated with 100 nM MitoTracker Green FM and 1 μg/mL Hoechst 33342 in fresh media for 30 min at 37° C., then media removed and the cells incubated with 100 μL PBS containing 5 μM 10. The cells were then directly imaged.
The CalFluors' performance in no-wash cell imaging experiments was evaluated. Using established methods, cell-surface glycoconjugates were metabolically labeled with peracetylated N-pentynoyl mannosamine (Ac4ManNAl), which introduces terminal alkyne groups into sialic acid residues (SiaNAl). HEK 293T cells treated in this fashion were then incubated, without fixation, with a cocktail containing 50 μM CuSO4, 300 μM BTTAA, 5 mM sodium ascorbate and 10 μM CalFluor dye.
Cells were grown with 50 μM Ac4ManNAl or Ac4ManNAc for 3 days, then subjected to click labeling with CalFluor probes. (A) Labeling glycoproteins on live cell surfaces. Cells were treated with 10 μM azide probe, 50 μM CuSO4, 300 μM BTTAA ligand, and 5 mM sodium ascorbate. The reaction was quenched with 1 mM BCS and the cells imaged without further wash steps. (B) Labeling glycoproteins on fixed cells. Cells were fixed with 3% paraformaldehyde, then treated with 10 μM CalFluor probe, 1 mM CuSO4, 100 μM TBTA ligand, and 2 mM sodium ascorbate. 0.1 mg/mL BSA was added to prevent the TBTA from precipitating over the course of the reaction.

mammalian cells = assay: Mammalian cell surface labeling of Ac4ManNAl-treated cells; type: cell-based; details: cells labeled with Ac4ManNAl
Protocol: Compound 9 was tested as a biological imaging reagent using mammalian cells that had been metabolically labeled with peracetylated N-pentynoylmannosamine (Ac4ManNAl), which is metabolized to N-pentynoyl sialic acid (SiaNAl) and presented on cell-surface glycoconjugates. […] It was hypothesized that replacing the methoxy groups with more water soluble alkoxy substituents would maintain the electronic balance between the pendant aryl and the Si-xanthene moieties while enhancing hydrophilicity. To this end, compound 10 was synthesized in six steps from 2,4-difluoronitrobenzene (FIG. 5, and Scheme 1).
Finally, 2.5 μL 1 mM azido fluorophore in 4:1 PBS/MeOH was added. […] Microscopy was performed using a Zeiss AxioVert 200M inverted microscope using a Plan-Neofluar 40×/0.75 objective. Exposure time was 1000 ms using the FITC, Cy3, or Cy5 filters. Images were acquired and processed using SlideBook 5.0, and are shown as a single z-plane.

[5] = Photophysical properties and fluorescence quantum yields of Si-rhodamines in PBS pH 7.4; type: physicochemical
Protocol: The fluorescence quantum yields of the purified amino, azido, and triazolyl Si-rhodamines were measured in pH 7.4 phosphate buffered saline (PBS) using cresyl violet in methanol (Φfl=0.54) as a standard (Table 1). […] The best candidate of the four, 8-azidonaphthyl-substituted Si-rhodamine 1, afforded only a 5-fold increase in fluorescence quantum yield as compared with the 29-fold enhancement observed with the corresponding fluorescein.
Fluorescence quantum yields were measured by creating 2 mM stocks of dyes in MeOH. The dyes were then diluted to 20 μM in PBS, then further diluted in PBS to various final concentrations. The absorbance and emission spectra of five different concentrations of dye were measured while keeping maximum absorbance under 0.2. Solutions of probe were excited at 600 nm, and emission was integrated from 600 to 800 nm. Plotting integrated emission vs. absorbance at 600 nm yielded a line, whose slope corresponds to the fluorescence quantum yield. Absolute quantum yields were determined by comparison with the slope of the line measured for cresyl violet in MeOH (Φfl=0.54). The reported quantum yields are the average of three sets of measurements. Absorbance spectra were recorded on a Varian Cary 50 UV-Visible spectrophotometer. Fluorescence spectra were recorded on a Photon Technology International Quanta Master 4 L-format scanning spectrofluorometer equipped with an LPS-220B 75-W xenon lamp and power supply, A-1010B lamp housing with an integrated igniter, switchable 814 photon counting/analog photomultiplier detection unit, and MD5020 motor driver. Measurements were made in 1 cm×0.4 cm quartz cuvettes with a total sample volume of 1 mL.

cresyl violet
Φfl of the standard [1]: 0.54

[N-]=[N+]=Nc1cc2ccc(O)cc2oc1=O
no-wash alkyne-dependent labeling [2]: obscured alkyne-dependent labeling | labeling of fixed cells (fixed HEK 293T cells): performed comparably to the CalFluors

NC(CNC(=O)OC[C@@H]1[C@@H]2CCC#CCC[C@@H]21)C(=O)O (some centres unmarked) [Compound 14]
metabolic incorporation of D-amino acid (Escherichia coli): similarly to the Gram-positive bacteria | effect of excess D-alanine on labeling [3]: excess D-alanine decreases the fluorescence intensity

CN(C)c1ccc2c(c1)[Si](C)(C)C1=CC(=[N+](C)C)C=CC1=C2c1cc(N=[N+]=[N-])c(OCCOCCOS(=O)(=O)O)cc1OCCOCCOS(=O)(=O)[O-] [Compound 11]
labeling of peptidoglycan with dye (Escherichia coli; 5 mM endobcnDala, 20 μM probe): not efficiently labeled | cell-surface labeling (CHO K1 cells; Ac4ManNAl-treated CHO K1, no wash, 15 min): robust cell-surface labeling | background labeling (CHO K1 cells; CHO K1, control or unwanted labeling): no unwanted background or mitochondrial labeling | no-wash fluorescence signal on bacteria [4]: Clear fluorescence signal over background | cell-surface labeling (HEK 293T cells; Ac4ManNAl-treated HEK 293T, no wash): robust cell-surface labeling | background, intracellular or mitochondrial labeling (HEK 293T cells; HEK 293T): no unwanted background or mitochondrial labeling | cell permeability (HEK 293T cells; HEK 293T): not cell permeable

COc1cc(OC)c(C2=C3C=CC(=[N+](C)C)C=C3[Si](C)(C)c3cc(N(C)C)ccc32)cc1N=[N+]=[N-] [Compound 9-N3, 3-Azido-4,6-dimethoxy-Si-rhodamine]
background labeling (mammalian cells): significant alkyne-independent background labeling even after repeated washing steps | λabs [5]: 654 nm | λem [5]: 666 nm | Φfl ([5]; cresyl violet in methanol as standard): 0.0042 | Change in Φfl ([5]; increase (↑), triazole relative to the azide): 48 fold
